Assay results taken from PMC9154192 (PLoS Biology, 2022).
In brackets after ≈: the same amount, converted by molar mass.

How the values were obtained:
M. peregrinum = assay: microbe, parasite or virus in culture; type: cell-based, Mycobacterium peregrinum; settings: Mycolicibacterium peregrinum
M. gilvum = assay: microbe, parasite or virus in culture; type: cell-based, Mycobacterium gilvum; settings: Mycolicibacterium gilvum
[1] = test system: Corynebacterium diphtheriae; assay: Broth dilution MIC (CLSI); type: cell-based; settings: read-out: MIC
Text: (§1) Bacteria (Acinetobacter baumannii NCCP 14782, Citrobacter freundii NCCP 14766, Enterobacter aerogenes NCCP 14761, Escherichia coli NCCP 14762, Escherichia coli O157 NCCP 14541, Klebsiella pneumoniae NCCP 14764, Proteus mirabilis NCCP 14763, Proteus vulgaris NCCP 14765, Pseudomonas aeruginosa NCCP 14781, Salmonella Enteritidis NCCP 14771, Salmonella Paratyphi A NCCP 14759, Salmonella Typhimurium NCCP 16207, Serratia marcescens NCCP 14770, Shigella boydii NCCP 14745, Shigella dysenteriae NCCP 14746, Shigella flexneri NCCP 14744, Shigella sonnei NCCP 14773, Bacillus subtilis NCCP 11101, Corynebacterium diphtheriae NCCP 10353, Staphylococcus aureus MSSA NCCP 14780, Staphylococcus aureus MRSA NCCP 14769, Staphylococcus epidermidis NCCP 14768, Streptococcus pneumoniae NCCP 14774) and fungi (Aspergillus fumigatus NCCP 22454, Candida albicans NCCP 32557, Cryptococcus neoformans NCCP 32559, Microsporum canis NCCP 22454, Rhizopus oryzae NCCP 22458, Saccharomyces cerevisiae NCCP 32558, Trichophyton rubrum NCCP 22456) strains were obtained from the National Culture Collection for Pathogens (NCCP) (Chungbuk, Korea). The MIC of each agent was determined following the Clinical and Laboratory Standards Institute (CLSI).[40]

Rhizopus oryzae = assay: Broth dilution MIC (CLSI); type: cell-based; settings: Rhizopus arrhizus; Rhizopus oryzae; read-out: MIC
Text: as §1

Shigella flexneri = assay: Broth dilution MIC (CLSI); type: cell-based; settings: read-out: MIC
Text: as §1

Escherichia coli = assay: Broth dilution MIC (CLSI); type: cell-based; settings: read-out: MIC
Text: as §1

Pseudomonas aeruginosa = assay: Broth dilution MIC (CLSI); type: cell-based; settings: read-out: MIC
Text: as §1

Serratia marcescens = assay: Broth dilution MIC (CLSI); type: cell-based; settings: read-out: MIC
Text: as §1

Shigella sonnei = assay: Broth dilution MIC (CLSI); type: cell-based; settings: read-out: MIC
Text: as §1

Citrobacter freundii = assay: Broth dilution MIC (CLSI); type: cell-based; settings: read-out: MIC
Text: as §1

Salmonella Paratyphi A = assay: Broth dilution MIC (CLSI); type: cell-based; settings: Salmonella enterica; Salmonella Paratyphi A; read-out: MIC
Text: as §1

Cryptococcus neoformans = assay: Broth dilution MIC (CLSI); type: cell-based; settings: read-out: MIC
Text: as §1

Aspergillus fumigatus = assay: Broth dilution MIC (CLSI); type: cell-based; settings: read-out: MIC
Text: as §1

Saccharomyces cerevisiae = assay: Broth dilution MIC (CLSI); type: cell-based; settings: read-out: MIC
Text: as §1

Salmonella Typhimurium = assay: Broth dilution MIC (CLSI); type: cell-based; settings: Salmonella enterica; Salmonella Typhimurium; read-out: MIC
Text: as §1

Proteus mirabilis = assay: Broth dilution MIC (CLSI); type: cell-based; settings: read-out: MIC
Text: as §1

Bacillus subtilis = assay: Broth dilution MIC (CLSI); type: cell-based; settings: read-out: MIC
Text: as §1

[2] = test system: Staphylococcus epidermidis; assay: Broth dilution MIC (CLSI); type: cell-based; settings: read-out: MIC
Text: as §1

[3] = test system: Staphylococcus aureus, MSSA; assay: Broth dilution MIC (CLSI); type: cell-based; settings: read-out: MIC
Text: as §1

[4] = test system: Staphylococcus aureus, MRSA; assay: Broth dilution MIC (CLSI); type: cell-based; settings: read-out: MIC
Text: as §1

Streptococcus pneumoniae = assay: Broth dilution MIC (CLSI); type: cell-based; settings: read-out: MIC
Text: as §1

Enterobacter aerogenes = assay: Broth dilution MIC (CLSI); type: cell-based; settings: Klebsiella aerogenes; Enterobacter aerogenes; read-out: MIC
Text: as §1

Shigella dysenteriae = assay: Broth dilution MIC (CLSI); type: cell-based; settings: read-out: MIC
Text: as §1

Acinetobacter baumannii = assay: Broth dilution MIC (CLSI); type: cell-based; settings: read-out: MIC
Text: as §1

Candida albicans = assay: Broth dilution MIC (CLSI); type: cell-based; settings: read-out: MIC
Text: as §1

Microsporum canis = assay: Broth dilution MIC (CLSI); type: cell-based; settings: read-out: MIC
Text: as §1

Salmonella Enteritidis = assay: Broth dilution MIC (CLSI); type: cell-based; settings: Salmonella enterica; Salmonella Enteritidis; read-out: MIC
Text: as §1

Klebsiella pneumoniae = assay: Broth dilution MIC (CLSI); type: cell-based; settings: read-out: MIC
Text: as §1

Shigella boydii = assay: Broth dilution MIC (CLSI); type: cell-based; settings: read-out: MIC
Text: as §1

Escherichia coli O157 = assay: Broth dilution MIC (CLSI); type: cell-based; settings: read-out: MIC
Text: as §1

Proteus vulgaris = assay: Broth dilution MIC (CLSI); type: cell-based; settings: read-out: MIC
Text: as §1

M. kyorinense = assay: microbe, parasite or virus in culture; type: cell-based; settings: Mycobacterium kyorinense
M. chitae = assay: microbe, parasite or virus in culture; type: cell-based, Mycobacterium chitae; settings: Mycolicibacterium chitae
M. colombiense = assay: microbe, parasite or virus in culture; type: cell-based; settings: Mycobacterium colombiense
M. aubagnense = assay: microbe, parasite or virus in culture; type: cell-based, Mycobacterium aubagnense; settings: Mycolicibacterium aubagnense
M. conceptionense = assay: microbe, parasite or virus in culture; type: cell-based, Mycobacterium conceptionense; settings: Mycolicibacterium senegalense
M. marinum = assay: microbe, parasite or virus in culture; type: cell-based; settings: Mycobacterium marinum
[5] = test system: clinically isolated MDR, XDR, and TDR M. tuberculosis strains; assay: microbe, parasite or virus in culture; type: cell-based; settings: Mycobacterium tuberculosis
M. arupense = assay: microbe, parasite or virus in culture; type: cell-based, Mycobacterium arupense; settings: Mycolicibacter arupensis
M. gordonae = assay: microbe, parasite or virus in culture; type: cell-based; settings: Mycobacterium gordonae
M. marseiliense = assay: microbe, parasite or virus in culture; type: cell-based; settings: Mycobacterium
M. kansasii = assay: microbe, parasite or virus in culture; type: cell-based; settings: Mycobacterium kansasii
M. fortuitum = assay: microbe, parasite or virus in culture; type: cell-based, Mycobacterium fortuitum; settings: Mycolicibacterium fortuitum

## [H]/N=C(/N)N[C@H]1[C@H](O)[C@@H](O)[C@H](O[C@@H]2O[C@@H](C)[C@](O)(C=O)[C@H]2O[C@@H]2O[C@@H](CO)[C@H](O)[C@@H](O)[C@@H]2NC)[C@@H](N/C(N)=N\[H])[C@@H]1O [STR, streptomycin]
M. peregrinum
  MIC: 3.1 µg/mL (≈ 5.33 µM)
M. gilvum
  MIC: 0.2 µg/mL (≈ 0.344 µM)
[1]
  MIC: 3.1 µg/mL (≈ 5.33 µM)
Rhizopus oryzae
  MIC: > 100 µg/mL
Shigella flexneri
  MIC: 25 µg/mL (≈ 43 µM)
Escherichia coli
  MIC: 25 µg/mL (≈ 43 µM)
Pseudomonas aeruginosa
  MIC: 25 µg/mL (≈ 43 µM)
Serratia marcescens
  MIC: 50 µg/mL (≈ 86 µM)
Shigella sonnei
  MIC: 3.1 µg/mL (≈ 5.33 µM)
Citrobacter freundii
  MIC: 1.6 µg/mL (≈ 2.75 µM)
Salmonella Paratyphi A
  MIC: 6.3 µg/mL (≈ 10.8 µM)
Cryptococcus neoformans
  MIC: > 100 µg/mL
Aspergillus fumigatus
  MIC: > 100 µg/mL
Saccharomyces cerevisiae
  MIC: > 100 µg/mL
Salmonella Typhimurium
  MIC: 25 µg/mL (≈ 43 µM)
Proteus mirabilis
  MIC: 6.3 µg/mL (≈ 10.8 µM)
Bacillus subtilis
  MIC: 0.8 µg/mL (≈ 1.38 µM)
[2]
  MIC: 1.6 µg/mL (≈ 2.75 µM)
[3]
  MIC: 6.3 µg/mL (≈ 10.8 µM)
[4]
  MIC: 3.1 µg/mL (≈ 5.33 µM)
Streptococcus pneumoniae
  MIC: 12.5 µg/mL (≈ 21.5 µM)
Enterobacter aerogenes
  MIC: 3.1 µg/mL (≈ 5.33 µM)
Shigella dysenteriae
  MIC: 25 µg/mL (≈ 43 µM)
Acinetobacter baumannii
  MIC: 6.3 µg/mL (≈ 10.8 µM)
Candida albicans
  MIC: > 100 µg/mL
Microsporum canis
  MIC: > 100 µg/mL
Salmonella Enteritidis
  MIC: 3.1 µg/mL (≈ 5.33 µM)
Klebsiella pneumoniae
  MIC: 3.1 µg/mL (≈ 5.33 µM)
Shigella boydii
  MIC: 25 µg/mL (≈ 43 µM)
Escherichia coli O157
  MIC: 6.3 µg/mL (≈ 10.8 µM)
Proteus vulgaris
  MIC: 25 µg/mL (≈ 43 µM)
M. kyorinense
  MIC: 0.8 µg/mL (≈ 1.38 µM)
M. chitae
  MIC: > 100 µg/mL
M. colombiense
  MIC: 0.8 µg/mL (≈ 1.38 µM)
M. aubagnense
  MIC: > 100 µg/mL
M. conceptionense
  MIC: 3.1 µg/mL (≈ 5.33 µM)
M. marinum
  MIC: < 0.1 µg/mL
[5]; TDR-1
  MIC: 50 µg/mL (≈ 86 µM)
[5]; TDR-2
  MIC: > 100 µg/mL
[5]; TDR-3
  MIC: 50 µg/mL (≈ 86 µM)
M. arupense
  MIC: 0.1 µg/mL (≈ 0.172 µM)
M. gordonae
  MIC: 100 µg/mL (≈ 172 µM)
M. marseiliense
  MIC: 25 µg/mL (≈ 43 µM)
M. kansasii
  MIC: 0.2 µg/mL (≈ 0.344 µM)
M. fortuitum
  MIC: 6.3 µg/mL (≈ 10.8 µM)
